Data on eleven compounds can be found in ChEMBL document CHEMBL1201862, “PubChem BioAssay data set” (2004).

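Exposure lasted 48 hours, with cells grown in 96-well plates and compounds tested at five concentrations. Abbreviation: GI50, concentration required for 50% inhibition of growth.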 Calls of active or inactive are those of the source. No stated cut-off is given here; in the data, active = GI50 up to about 1.1 µM and inactive = higher.

Among the test systems are NCI-H522; EKVX; HOP-62; CCRF-CEM; RPMI-8226; UO-31; HOP-92; UACC-257; RXF 393; A549; SK-MEL-5; HCT-116; SK-OV-3; HOP-18; SK-MEL-2; HCC 2998; LOX IMVI; M14; SR; ACHN.
Common to all, as to assay: NCI-60 cell line screen, 48 h

Take `Cc1nc2ccccc2c(=O)n1Nc1ccc(C(=O)O)cc1`: the GI50 in the assay with NCI-H522, in the assay with EKVX, in the assay on HOP-62, in the assay on CCRF-CEM, in the assay on RPMI-8226 and in the assay with UO-31 was > 100 µM (inactive) throughout. The GI50 in the assay on HOP-92, in the assay on UACC-257, in the assay with RXF 393, in the assay with A549, in the assay with SK-MEL-5 and with HCT-116 was > 100 µM (inactive) throughout. In addition, the GI50 in the assay with SK-OV-3, in the assay with HOP-18, in the assay with SK-MEL-2, in the assay on HCC 2998 and in the assay on LOX IMVI was > 100 µM (inactive) in each case.
Regarding `NC(=O)c1c[se]c(C2OC(COP(=O)(O)CP(=O)(O)OCC3OC(n4cnc5c(N)ncnc54)C(O)C3O)C(O)C2O)n1` (centres undefined), the GI50 with M14 was 72.8 µM (inactive); with NCI-H522 it was > 100 µM (inactive); with EKVX, > 100 µM (inactive); with HOP-62, > 100 µM (inactive); in the assay with CCRF-CEM it was 29.1 µM (inactive); with UO-31, > 100 µM (inactive). In addition, the GI50 was > 100 µM (inactive) in the assay on HOP-92; > 100 µM (inactive) in the assay with UACC-257; > 100 µM (inactive) in the assay with RXF 393; 51.3 µM (inactive) with A549; > 100 µM (inactive) in the assay with SK-MEL-5; 52.1 µM (inactive) in the assay with HCT-116. Besides, the GI50 with SR was 35 µM (inactive); in the assay with ACHN, 64.3 µM (inactive); in the assay on SK-OV-3, > 100 µM (inactive); in the assay with HOP-18 it was > 100 µM (inactive); in the assay with SK-MEL-2, > 100 µM (inactive).
Turning to `COc1ccc(Cc2nn(C3OC(COC(C)=O)C(OC(C)=O)C(OC(C)=O)C3OC(C)=O)c(=S)n(-c3ccc(OC)cc3)c2=O)cc1` (centres undefined), the GI50 was > 100 µM (inactive) in the assay on NCI-H522; > 54.3 µM (inactive) in the assay with EKVX; > 100 µM (inactive) in the assay on HOP-62; > 100 µM (inactive) in the assay on CCRF-CEM; > 100 µM (inactive) in the assay on RPMI-8226; > 100 µM (inactive) in the assay on UO-31. The GI50 is > 87.5 µM (inactive) in the assay on HOP-92; > 100 µM (inactive) with UACC-257; > 100 µM (inactive) with RXF 393; > 100 µM (inactive) with A549; > 100 µM (inactive) with SK-MEL-5; > 100 µM (inactive) with HCT-116. For the same compound, the GI50 in the assay with SK-OV-3 was > 100 µM (inactive); in the assay with HOP-18 it was > 94 µM (inactive); in the assay with SK-MEL-2 it was > 100 µM (inactive); in the assay with HCC 2998, > 100 µM (inactive); with LOX IMVI it was > 100 µM (inactive).
With `Cc1ccc(S(=O)(=O)OC[C@@H]2CO2)cc1`, the GI50 in the assay with M14, in the assay with EKVX, in the assay on HOP-62, in the assay with CCRF-CEM, in the assay on UO-31 and with HOP-92 was > 100 µM (inactive) in each case. The GI50 in the assay on UACC-257, in the assay with RXF 393, with A549, in the assay on SK-MEL-5, in the assay with HCT-116 and with SR was > 100 µM (inactive) each time. In addition, the GI50 in the assay with ACHN is > 100 µM (inactive); with HOP-18, > 100 µM (inactive); with SK-MEL-2 it was > 100 µM (inactive); with HCC 2998, > 100 µM (inactive); in the assay on LOX IMVI it was 99.3 µM (inactive).
With `O=C(c1ccccc1)c1nc2ccc(Cl)cc2c2c1CCCO2`, the GI50 in the assay on M14, in the assay on NCI-H522, in the assay with EKVX, in the assay with HOP-62, with RPMI-8226 and in the assay with UO-31 was > 100 µM (inactive) throughout. Further, the GI50 was 56.2 µM (inactive) in the assay on RXF 393; > 100 µM (inactive) with HCT-116; > 100 µM (inactive) in the assay with SR; > 100 µM (inactive) with ACHN; > 100 µM (inactive) in the assay with HOP-18; > 100 µM (inactive) with SK-MEL-2. Besides, the GI50 in the assay on HCC 2998 and with LOX IMVI was > 100 µM (inactive) throughout.
Regarding `Cc1c2cnccc2c(C)c2c1c1ccccc1n2CC1CO1` (centres undefined), the GI50 was 1.07 µM (active) in the assay with NCI-H522; 0.687 µM (active) in the assay with EKVX; 1.64 µM (inactive) in the assay with HOP-62; 0.0389 µM (active) with CCRF-CEM; 0.883 µM (active) in the assay on RPMI-8226; 1.42 µM (inactive) in the assay with UO-31. For the same compound, the GI50 in the assay with HOP-92 is 1.81 µM (inactive); in the assay with UACC-257, 1.75 µM (inactive); in the assay on RXF 393 it was 0.427 µM (active); in the assay on A549, 1.51 µM (inactive); with SK-MEL-5 it was 1.1 µM (active); in the assay with HCT-116, 0.327 µM (active). Moreover, the GI50 with SK-OV-3 is 2.53 µM (inactive); in the assay with HOP-18 it was 1.86 µM (inactive); with SK-MEL-2 it was 1.66 µM (inactive); in the assay on HCC 2998, 1.18 µM (inactive); with LOX IMVI it was 0.393 µM (active).
In the case of `CN1NC(c2ccc(Cl)cc2)=C(C#N)C(=O)CC1c1ccccc1` (centres undefined), the GI50 is 79.4 µM (inactive) with NCI-H522; > 100 µM (inactive) in the assay on RPMI-8226; > 100 µM (inactive) in the assay with HOP-92; > 100 µM (inactive) with UACC-257; > 100 µM (inactive) in the assay with RXF 393; > 100 µM (inactive) in the assay on A549. The GI50 with SK-MEL-5 is 72.9 µM (inactive); in the assay with HCT-116, > 100 µM (inactive); in the assay on SR, > 100 µM (inactive); in the assay on ACHN, > 100 µM (inactive); with SK-OV-3 it was > 100 µM (inactive); with HOP-18, 29.9 µM (inactive). In addition, the GI50 with SK-MEL-2 and in the assay on LOX IMVI was > 100 µM (inactive) each time.
Consider `O=C(Cc1nc2ccc(C(=O)c3ccccc3)cc2nc1O)C(=O)Nc1nc2ccccc2[nH]1`, for which the GI50 in the assay with M14 is 82.6 µM (inactive); in the assay with NCI-H522, 30 µM (inactive); with EKVX, > 100 µM (inactive); in the assay on HOP-62 it was 33.3 µM (inactive); in the assay with CCRF-CEM it was 38.3 µM (inactive); with UO-31, 60.3 µM (inactive). In addition, the GI50 in the assay on HOP-92 was 23 µM (inactive); with UACC-257 it was 84.5 µM (inactive); in the assay on A549 it was 50.9 µM (inactive); with SK-MEL-5, 31 µM (inactive); in the assay on HCT-116, 51.6 µM (inactive); in the assay on SR, 11.7 µM (inactive). Besides, the GI50 in the assay with ACHN is 86.7 µM (inactive); in the assay on SK-OV-3, > 100 µM (inactive); in the assay on HOP-18 it was 77.1 µM (inactive); in the assay on HCC 2998, > 100 µM (inactive); in the assay with LOX IMVI, 44 µM (inactive).
As for `CC(=O)NNc1nc(C)c(C(=O)NNC(=O)C(=O)Nc2ccccc2C#N)s1`, the GI50 in the assay with M14 was > 100 µM (inactive); with NCI-H522, 88.1 µM (inactive); in the assay with EKVX it was > 100 µM (inactive); in the assay on HOP-62 it was > 100 µM (inactive); in the assay on CCRF-CEM, 65.9 µM (inactive); in the assay on RPMI-8226 it was > 100 µM (inactive). For the same compound, the GI50 with UO-31, in the assay with HOP-92, with UACC-257, in the assay with RXF 393, in the assay on A549 and in the assay with SK-MEL-5 was > 100 µM (inactive) throughout. Besides, the GI50 with HCT-116 was > 100 µM (inactive); in the assay with SR it was 87.1 µM (inactive); in the assay on ACHN, > 100 µM (inactive); in the assay with SK-OV-3 it was > 100 µM (inactive); in the assay with HOP-18 it was > 100 µM (inactive); in the assay on SK-MEL-2, > 100 µM (inactive). In addition, the GI50 in the assay on HCC 2998 and in the assay with LOX IMVI was > 100 µM (inactive) throughout.
For the compound `COC(=O)c1cccc(N[C@@H]2c3cc4c(cc3C(c3cc(OC)c(O)c(OC)c3)[C@H]3C(=O)OCC32)OCO4)c1` (some centres undefined), the GI50 is 1.4 µM (inactive) in the assay with NCI-H522; 4.03 µM (inactive) in the assay with EKVX; 0.239 µM (active) with HOP-62; 0.248 µM (active) in the assay with CCRF-CEM; 1.37 µM (inactive) in the assay with RPMI-8226; 0.718 µM (active) in the assay with UO-31. Further, the GI50 in the assay with HOP-92 is 1.06 µM (active); with UACC-257, 0.659 µM (active); in the assay on RXF 393, 1.33 µM (inactive); in the assay with A549, 0.153 µM (active); with SK-MEL-5 it was 1.11 µM (active); in the assay with HCT-116, 0.682 µM (active). Besides, the GI50 in the assay with SK-OV-3 was 2.86 µM (inactive); in the assay with HOP-18, 2.62 µM (inactive); with SK-MEL-2, 4.69 µM (inactive); in the assay on HCC 2998, 2.19 µM (inactive); with LOX IMVI it was 0.859 µM (active).
For the compound `CC(C)[C@](O)(C(=O)OCC1=CCN2CC[C@@H](O)[C@@H]12)[C@H](C)O`, the GI50 was 59.4 µM (inactive) in the assay with NCI-H522; > 375 µM (inactive) in the assay with EKVX; > 335 µM (inactive) in the assay with HOP-62; > 375 µM (inactive) in the assay on CCRF-CEM; > 375 µM (inactive) in the assay on RPMI-8226; > 375 µM (inactive) with UO-31. Moreover, the GI50 was > 375 µM (inactive) in the assay on HOP-92; > 375 µM (inactive) with UACC-257; > 375 µM (inactive) in the assay on RXF 393; > 375 µM (inactive) with A549; > 80.7 µM (inactive) in the assay on SK-MEL-5; > 375 µM (inactive) with HCT-116. Also, the GI50 was > 375 µM (inactive) in the assay with SK-OV-3; > 375 µM (inactive) with HOP-18; > 375 µM (inactive) with SK-MEL-2; > 375 µM (inactive) with HCC 2998; > 174 µM (inactive) in the assay with LOX IMVI.
